No end group written: not given here.
Legend:
Assay type in all cases: cell-based
[1] = tested on: Citrobacter rodentium strain ICC 169; experiment: Anti-bacterial activity assay (colony counts after peptide titration); settings: 1U = dose needed to kill 50% of the bacteria (IC50), peptide 20, 10, 4, 2 µg/ml, 4 h at 37°C, colonies counted on LB agar, logistic 4 parameter model (drda), means of two independent experiments
Description: (§1) Antimicrobial essays for the synthetic proteins were performed against Escherichia coli, Staphylococcus nepalensis, Enterococcus fecalis and Citrobacter rodentium. The first three species are common in small intestine in mice (where Paneth cells are relevant), while C. rodentium is a common pathogen in mice. To obtain cultures of the first three species, C57BL/6J mice were euthanized, ileum content harvested and diluted in sterile PBS and plated out on standard LB plates, overnight. Colonies were picked and species identified using Maldi-Toff [as previously described ([19])]. The relevant pure colonies of these three species were then grown on plates, identified once again, and grown in liquid LB and frozen at -80°C. The C. rodentium culture was strain ICC 169 and was obtained from ATCC.
(§2) Bacteria were grown in LB broth at 37°C in an incubation shaker (100rpm) until and OD between 0.8-1. For each peptide, a dilution set (800 µl/peptide) derived from the stock solution was prepared in such manner to obtain a final volume of 1 ml with peptide concentrations of 20 µg/ml, 10 µg/ml, 4 µg/ml and 2 µg/ml. Bacteria grown in LB broth where diluted to OD 0.2. For each bacterium, 200 µl of the OD 0.2 solution was added to each of the peptide dilutions and incubated at 37°C for four hours at 55 rpm. After incubation 100 µl of the incubated mixture was plated out on LB agar plates at two concentrations: undiluted and 1:10 diluted. The plates were incubated at 37°C overnight after which colonies per plate were counted and tabulated. The highest plated out concentration that still had individually distinguishable colonies was used.
(§3) The R package “drda” ([20]) was used to perform a dose-response analysis using the logistic 4 parameter model. The concentration that inhibits growth by 50%, IC50, was obtained from the models for each combination of bacterium and peptide and converted into per peptide specific activity.

Enterococcus fecalis = experiment: as above; settings: 1U = dose needed to kill 50% of the bacteria (IC50); peptide 20, 10, 4, 2 µg/ml; 4 h at 37°C; colonies counted on LB agar; logistic 4 parameter model (drda); isolate from mouse ileum; means of two independent experiments
Description: as §1, §2, §3

[2] = tested on: Staphylococcus nepalensis; experiment: as above; settings: 1U = dose needed to kill 50% of the bacteria (IC50); peptide 20, 10, 4, 2 µg/ml; 4 h at 37°C; colonies counted on LB agar; logistic 4 parameter model (drda); isolate from mouse ileum; means of two independent experiments
Description: as §1, §2, §3

Escherichia coli = experiment: as above; settings: 1U = dose needed to kill 50% of the bacteria (IC50); peptide 20, 10, 4, 2 µg/ml; 4 h at 37°C; colonies counted on LB agar; logistic 4 parameter model (drda); isolate from mouse ileum; means of two independent experiments
Description: as §1, §2, §3

[3] = tested on: E. coli, C. rodentium, S. nepalensis, E. fecalis; experiment: Anti-bacterial activity assay, over the four bacterial species; settings: 1U = dose needed to kill 50% of the bacteria (IC50)
Description: as §1
as §2, with “After incubation 100 µl of the incubated mixture was plated out on LB agar plates at two concentrations: undiluted and 1:10 diluted.” left out, “The highest plated out concentration that still had individually distinguishable colonies was used.” left out

Row | Substance | Specific activity of cell killing, C. rodentium [1] | Specific activity of cell killing, E. fecalis (Enterococcus fecalis) | Specific activity of cell killing, S. nepalensis [2] | Specific activity of cell killing, E. coli (Escherichia coli) | Specific activity of cell killing, Mean [3]
1 | Defa31: custom-synthesized mature peptide of parental mouse α-defensin Defa31 (PRCPPCPRCSWCPRCPTCPRCNCNPK; ends and bridges not checked; cysteine pairing not given here; UniProt P50715 66-91, looked up) | 314 U/mg | 189 U/mg | 437 U/mg | 397 U/mg | 334 U/mg
2 | Defa24: custom-synthesized mature peptide of parental mouse α-defensin Defa24 (LRDLVCYCRARGCKGRERMNGTCSKGHLLYMLCC; ends and bridges not checked; cysteine pairing not given here; UniProt Q5G865 59-92, looked up) | 77 U/mg | 23 U/mg | 8 U/mg | 122 U/mg | 58 U/mg

From article PMC11840258, “Detection of chimeric alpha-defensin transcripts and peptides in mouse Paneth cells” (Frontiers in Immunology, 2025)
